These results are taken from patent US20230348516A1, “YKL-40 INHIBITORS AND THEIR THERAPEUTIC APPLICATIONS” (Molecure S.A., priority 2022, published 2023).

The experiment addresses YKL-40 and asialofetuin interaction (Homo sapiens, UniProt P36222). In words: Orthogonal YKL-40 AlphaScreen assay using biotinylated asialofetuin (AF-biot). The class given is binding. For orientation: In Alpha technology, singlet oxygen from a donor bead excites a nearby acceptor bead.

Chain of YKL-40 and asialofetuin interaction (P36222 22-383): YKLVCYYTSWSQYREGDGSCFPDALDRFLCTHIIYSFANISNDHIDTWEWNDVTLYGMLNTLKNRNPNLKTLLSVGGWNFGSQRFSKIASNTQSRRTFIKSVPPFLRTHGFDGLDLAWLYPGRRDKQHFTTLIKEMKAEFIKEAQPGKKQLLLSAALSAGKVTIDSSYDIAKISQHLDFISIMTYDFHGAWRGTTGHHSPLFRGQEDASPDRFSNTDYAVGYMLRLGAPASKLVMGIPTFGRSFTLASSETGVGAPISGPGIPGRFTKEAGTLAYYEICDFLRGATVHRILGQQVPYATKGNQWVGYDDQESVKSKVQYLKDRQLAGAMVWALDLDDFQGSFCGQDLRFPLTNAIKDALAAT

Usually IC50 stands for the midpoint of a concentration-inhibition curve. On to `Cc1cc(C2CCC(N3C[C@H](C(=O)O)OC[C@@H]3Cc3ccc(Cl)cc3)CC2)nn1C.O=C(O)C(F)(F)F` (single isomer, unassigned) [Example 11, 2,2,2-trifluoroacetate], for which the concentration for half-maximal inhibition (IC50) came out at 20 nM.
Turning to `Cc1cc(C2CCC(N3C[C@H](C(=O)O)OC[C@@H]3Cc3ccc(Cl)cc3)CC2)nn1C.O=C(O)C(F)(F)F` (single isomer, unassigned) [Example 11], the “interference with YKL-40 and asialofetuin (triantennary LacNac) interaction” value came out at 64%.
